Data set [1] relates to cockroaches. The data set is classed as in vivo. The note with it: 15 mg/jar alone. As to the method: (§1) Glass jars were treated with different concentrations of test chemicals in acetone. The acetone was allowed to evaporate and the cockroaches were exposed to the jars. […] This experiment was repeated 2 times.
The test system of data set [2] is cockroaches. Nature of the data set: Example 14: glass jar residual test, thymol with conventional insecticides. The format is in vivo. The note with it: 15 mg/jar alone. As for the experimental part: as §1
In data set [3] the test system is cockroaches. Description: Example 12: glass jar test, thymol with conventional insecticides. The data set is classed as in vivo. The settings on record: 1 hr.; 10 mg/jar alone. As for the experimental part: as §1
Another data set concerns Spodoptera litura. The settings on record: in vivo. As to the method: There were five replicates with 10 larvae per replicate, and this was repeated two times. Mortality was observed after 24 hours exposure.
In data set [4] the test system is cockroaches. The data set is classed as in vivo. The settings on record: 10 days; 30 mg/jar alone. As for the experimental part: as §1
The test system of data set [5] is cockroaches. The data set is classed as in vivo. As to the method: as §1
Another data set relates to female rats. Nature of the data set: Example 2: toxicity of tested dose in female rats. The data set is classed as in vivo, rat. The settings on record: female rats (8-10 week-old), up to 5 days after treatment. The text has this: The Blend-5 is a combination of plant essential oils consisting of thymol, eugenol, trans-anethole, alpha-terpineol, and citronellal.

Here are results for 1 molecule from US7534447B2, “Synergistic and residual pesticidal compositions containing plant essential oils” (priority 1998, dated 2009).

Read-outs that look alike come from different tables or passages of the source.

Consider `Cc1ccc(C(C)C)c(O)c1` [Thymol], for which the “% Mortality at time interval in days after treatment” value (from here on “% Mortality at time interval in days”) in the data set on cockroaches [1] (1 hr.) is on record as 30%; in the data set with cockroaches [1] (7 days), 0%; with cockroaches [2] (1 hr.) it was 10%; in the data set with cockroaches [2] (7 days) it was 20%; in the data set with cockroaches [2] (14 days), 10%; in the data set with cockroaches [3] it was 0%. The “% Mortality at time interval in days” value was determined as 0% in the data set with cockroaches [4]; 0% in the data set on cockroaches [5] (1 hr., 5 mg/jar alone); 10% with cockroaches [5] (1 hr., 10 mg/jar alone); 0% with cockroaches [5] (3 days, 5 mg/jar alone); 0% with cockroaches [5] (3 days, 10 mg/jar alone); 0% in the data set with cockroaches [5] (10 days, 5 mg/jar alone). Moreover, the “% Mortality at time interval in days” value with cockroaches [5] (10 days, 10 mg/jar alone) stood at 0%; with cockroaches [5] (10 days, 30 mg/jar alone) it was 0%. Besides, in the data set on Spodoptera litura, the “Mortality (%) 24 hrs.” value was determined as 98%. Also, the “death or sign of toxicity (body weight and appetite)” value with female rats is on record as “did not induce any death or sign of toxicity”.
